Counter-ions that a name gives are not always drawn.

Chain of MAGL (Q99685 whole entry, species assumed): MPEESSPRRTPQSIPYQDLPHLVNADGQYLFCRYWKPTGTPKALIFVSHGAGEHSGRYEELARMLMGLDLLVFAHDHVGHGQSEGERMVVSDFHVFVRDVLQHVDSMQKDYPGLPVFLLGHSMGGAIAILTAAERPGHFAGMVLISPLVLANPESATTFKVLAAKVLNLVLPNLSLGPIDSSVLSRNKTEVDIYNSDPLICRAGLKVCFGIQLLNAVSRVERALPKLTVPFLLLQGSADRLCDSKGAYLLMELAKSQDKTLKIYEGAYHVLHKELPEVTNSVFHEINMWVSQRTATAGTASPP

In this experiment the target is MAGL (Homo sapiens (Human), UniProt Q99685). The experiment is described as follows: 2-AG assay (MAGL inhibitory activity, hydrolysis of 2-arachidonoylglycerol followed by mass spectrometry). It counts as biochemical. As to conditions: 50 pM MAGL protein, 15 min pre-incubation, 30 min incubation at RT. The source says:
Compounds of formula (II) were profiled for MAGL inhibitory activity by determining the enzymatic activity by following the hydrolysis of the natural substrate 2-arachidonoylglycerol (2-AG) resulting in arachidonic acid, which can be followed by mass spectrometry. This assay is hereinafter abbreviated “2-AG assay”.
Compounds of formula (II) were profiled for MAGL inhibitory activity by determining the enzymatic activity by following the hydrolysis of the natural substrate 2-arachidonoylglycerol (2-AG) resulting in arachidonic acid, which can be followed by mass spectrometry. This assay is hereinafter abbreviated “2-AG assay”. The 2-AG assay was carried out in 384 well polypropylene assay plates. Compound dilutions were made in 100% DMSO in a polypropylene plate in 3-fold dilution steps to give a final concentration range in the assay from 12.5 μM to 0.8 pM. Compound dilutions were added to MAGL protein in assay buffer (50 mM TRIS, 1 mM EDTA, 0.01% (v/v) Tween-20, 2.5% (v/v) DMSO). After shaking, the plate was incubated for 15 min at RT. To start the reaction, 2-arachidonoylglycerol in assay buffer was added. The final concentrations in the assay was 50 pM for MAGL protein and […] 2-arachidonoylglyerol. After shaking and 30 min incubation at RT, the reaction was quenched by the addition of two assay volumes of acetonitrile containing 4 μM of d8-arachidonic acid. The amount of arachidonic acid formed was traced by an online SPE system (Agilent Rapidfire) coupled to a triple quadrupole mass spectrometer. A C18 SPE cartridge (Agilent G9205A) was used in an acetonitrile/water liquid setup. The mass spectrometer was operated in negative electrospray mode following the mass transitions 303.1→259.1 for arachidonic acid and 311.1→267.0 for d8-arachidonic acid. The activity of the compounds was calculated based on the ratio of intensities [arachidonic acid/d8-arachidonic acid].
Usually IC50 stands for the point on the concentration scale where inhibition reaches its midpoint. For the compound `CC1c2nn(C)c(-c3cc(F)cc(F)c3)c2CCN1C(=O)c1cc(F)cc(OCC2CNC(=O)C2)c1Cl` (racemic) [Example 40, 4-[[2-Chloro-3-[3-(3,5-difluorophenyl)-2,7-dimethyl-5,7-dihydro-4H-pyrazolo[3,4-c]pyridine-6-carbonyl]-5-fluoro-phenoxy]methyl]pyrrolidin-2-one], the IC50 came out at 293 nM.
In turn, `CC1c2nn(C)c(-c3cc(F)cc(F)c3)c2CCN1C(=O)c1cc(F)cc(OCC2CNC(=O)C2)c1Cl` (single isomer, unassigned) [Example 38, 4-[[2-Chloro-3-[3-(3,5-difluorophenyl)-2,7-dimethyl-5,7-dihydro-4H-pyrazolo[3,4-c]pyridine-6-carbonyl]-5-fluoro-phenoxy]methyl]pyrrolidin-2-one] displayed a half-inhibitory concentration (IC50) of 0.5 nM.
Compound `CC1c2nn(C)c(-c3cc(F)cc(F)c3)c2CCN1C(=O)c1cc(F)cc(OCC2CNC(=O)C2)c1Cl` (single isomer, unassigned) [Example 39, 4-[[2-Chloro-3-[3-(3,5-difluorophenyl)-2,7-dimethyl-5,7-dihydro-4H-pyrazolo[3,4-c]pyridine-6-carbonyl]-5-fluoro-phenoxy]methyl]pyrrolidin-2-one] registered a half-maximal inhibitory concentration (IC50) of 169 nM.
Compound `C[C@@H]1c2nn(C)c(-c3cc(F)cc(F)c3)c2CCN1C(=O)c1ccc(CCC2CNC(=O)C2)cc1Cl` (single isomer, unassigned) [Example 46, 4-[2-[3-Chloro-4-[3-(3,5-difluorophenyl)-2,7-dimethyl-5,7-dihydro-4H-pyrazolo[3,4-c]pyridine-6-carbonyl]phenyl]ethyl]pyrrolidin-2-one] registered a half-inhibitory concentration (IC50) of 258 nM.
Regarding `C[C@H]1c2nn(C)c(-c3cc(F)cc(F)c3)c2CCN1C(=O)c1cc(F)cc(OCC2CNC(=O)O2)c1Cl` (single isomer, unassigned) [Example 49, 5-[[2-Chloro-3-[3-(3,5-difluorophenyl)-2,7-dimethyl-5,7-dihydro-4H-pyrazolo[3,4-c]pyridine-6-carbonyl]-5-fluoro-phenoxy]methyl]oxazolidin-2-one], the IC50 amounted to 1 nM.
The compound `C[C@H]1c2nn(C)c(-c3cc(F)cc(F)c3)c2CCN1C(=O)c1cc(F)cc(OCC2CNC(=O)O2)c1Cl` (single isomer, unassigned) [Example 50, 5-[[2-Chloro-3-[3-(3,5-difluorophenyl)-2,7-dimethyl-5,7-dihydro-4H-pyrazolo[3,4-c]pyridine-6-carbonyl]-5-fluoro-phenoxy]methyl]oxazolidin-2-one] gave a half-inhibitory concentration (IC50) of 5 nM.
Take `C[C@@H]1c2nn(C)c(-c3cc(F)cc(F)c3)c2CCN1C(=O)c1cc(F)cc(OCC2CNC(=O)O2)c1Cl` (single isomer, unassigned) [Example 51, 5-[[2-Chloro-3-[3-(3,5-difluorophenyl)-2,7-dimethyl-5,7-dihydro-4H-pyrazolo[3,4-c]pyridine-6-carbonyl]-5-fluoro-phenoxy]methyl]oxazolidin-2-one]: inhibition was half-maximal at 187 nM (IC50).
The compound `C[C@@H]1c2nn(C)c(-c3cc(F)cc(F)c3)c2CCN1C(=O)c1cc(F)cc(OCC2CNC(=O)O2)c1Cl` (single isomer, unassigned) [Example 52, 5-[[2-Chloro-3-[3-(3,5-difluorophenyl)-2,7-dimethyl-5,7-dihydro-4H-pyrazolo[3,4-c]pyridine-6-carbonyl]-5-fluoro-phenoxy]methyl]oxazolidin-2-one] yielded an IC50 of 2000 nM.
`C[C@H]1c2nn(C)c(-c3cc(F)cc(F)c3)c2CCN1C(=O)c1ncnn1[C@H]1CCNC1` (single isomer, unassigned) [Example 54, [3-(3,5-Difluorophenyl)-2,7-dimethyl-5,7-dihydro-4H-pyrazolo[3,4-c]pyridin-6-yl]-(2-pyrrolidin-3-yl-1,2,4-triazol-3-yl)methanone; hydrochloride] came in with a half-inhibitory concentration (IC50) of 714 nM.
For the compound `C[C@H]1c2nn(C)c(-c3cc(F)cc(F)c3)c2CCN1C(=O)c1cc(Cl)cc(OC[C@@H]2CNC(=O)O2)c1Cl` (single isomer, unassigned) [Example 108], the IC50 came out at 294 nM.
On to `C[C@H]1c2nn(C)c(-c3cc(F)cc(F)c3)c2CCN1C(=O)c1cc(Cl)cc(OC[C@H]2CNC(=O)O2)c1Cl` (single isomer, unassigned) [Example 109], for which inhibition was half-maximal at 371 nM (IC50).
For `C[C@H]1c2nn(C)c(-c3cc(F)cc(F)c3)c2CCN1C(=O)c1cc(F)cc(OC[C@@H]2CNC(=O)N2)c1Cl` (single isomer, unassigned) [Example 113], half-maximal inhibition (IC50) required 2.48 nM.
For `C[C@H]1c2nn(C)c(-c3cc(F)cc(F)c3)c2CCN1C(=O)c1cc(F)cc(OC[C@@H]2CNC(=O)N2)c1Cl` (single isomer, unassigned) [Example 114], the midpoint of inhibition, the IC50, lay at 929 nM.
As for `C[C@H]1c2nn(C)c(-c3cc(F)cc(F)c3)c2CCN1C(=O)c1cc(F)cc(OCC2CNC(=O)C2)c1Cl` (stereo in doubt) [Example 37, 4-[[2-Chloro-3-[3-(3,5-difluorophenyl)-2,7-dimethyl-5,7-dihydro-4H-pyrazolo[3,4-c]pyridine-6-carbonyl]-5-fluoro-phenoxy]methyl]pyrrolidin-2-one], the figure is 5 nM; as for `C[C@H]1c2nn(C)c(-c3cc(F)cc(F)c3)c2CCN1C(=O)c1ccc(CCC2CNC(=O)C2)cc1Cl` (stereo in doubt) [Example 47, 4-[2-[3-Chloro-4-[3-(3,5-difluorophenyl)-2,7-dimethyl-5,7-dihydro-4H-pyrazolo[3,4-c]pyridine-6-carbonyl]phenyl]ethyl]pyrrolidin-2-one], 127 nM.
Take `COc1cccc(C(=O)N2CCc3c(nn(C)c3-c3cc(Cl)cc(CNS(C)(=O)=O)c3)[C@@H]2C)c1Cl` [Example 1, N-[[3-Chloro-5-[(7S)-6-(2-chloro-3-methoxy-benzoyl)-2,7-dimethyl-5,7-dihydro-4H-pyrazolo[3,4-c]pyridin-3-yl]phenyl]methyl]methanesulfonamide]: it took 14 nM to reach half-maximal inhibition (IC50).
Consider `COc1cccc(C(=O)N2CCc3c(nn(C)c3-c3cc(Cl)cc(CNS(C)(=O)=O)c3)[C@H]2C)c1Cl` [Example 2, N-[[3-Chloro-5-[(7R)-6-(2-chloro-3-methoxy-benzoyl)-2,7-dimethyl-5,7-dihydro-4H-pyrazolo[3,4-c]pyridin-3-yl]phenyl]methyl]methanesulfonamide], for which the half-inhibitory concentration (IC50) amounted to 1650 nM.
Compound `CNS(=O)(=O)Cc1cc(Cl)cc(-c2c3c(nn2C)[C@H](C)N(C(=O)c2cccc(OC)c2Cl)CC3)c1` [Example 3, 1-[3-Chloro-5-[(7S)-6-(2-chloro-3-methoxy-benzoyl)-2,7-dimethyl-5,7-dihydro-4H-pyrazolo[3,4-c]pyridin-3-yl]phenyl]-N-methyl-methanesulfonamide] registered an IC50 of 63 nM.
`COc1cccc(C(=O)N2CCc3c(nn(C)c3-c3cc(Cl)cc(S(N)(=O)=O)c3)[C@@H]2C)c1Cl` [Example 4, 3-Chloro-5-[(7S)-6-(2-chloro-3-methoxy-benzoyl)-2,7-dimethyl-5,7-dihydro-4H-pyrazolo[3,4-c]pyridin-3-yl]benzenesulfonamide] registered an IC50 of 27 nM.
On to `COc1cccc(C(=O)N2CCc3c(nn(C)c3-c3cc(Cl)cc(C4(S(C)(=O)=O)CC4)c3)[C@@H]2C)c1Cl` [Example 5, (2-Chloro-3-methoxy-phenyl)-[(7S)-3-[3-chloro-5-(1-methylsulfonylcyclopropyl)phenyl]-2,7-dimethyl-5,7-dihydro-4H-pyrazolo[3,4-c]pyridin-6-yl]methanone], for which the midpoint of inhibition, the IC50, lay at 59 nM.
Compound `COc1cccc(C(=O)N2CCc3c(nn(C)c3-c3cc(Cl)cc(CS(C)(=O)=O)c3)[C@@H]2C)c1Cl` [Example 6, (2-Chloro-3-methoxy-phenyl)-[(7S)-3-[3-chloro-5-(methylsulfonylmethyl)phenyl]-2,7-dimethyl-5,7-dihydro-4H-pyrazolo[3,4-c]pyridin-6-yl]methanone] registered an IC50 of 84 nM.
`COc1cccc(C(=O)N2CCc3c(nn(C)c3-c3cc(Cl)cc(C4(NS(C)(=O)=O)CC4)c3)[C@@H]2C)c1Cl` [Example 7, N-[1-[3-Chloro-5-[(7S)-6-(2-chloro-3-methoxy-benzoyl)-2,7-dimethyl-5,7-dihydro-4H-pyrazolo[3,4-c]pyridin-3-yl]phenyl]cyclopropyl]methanesulfonamide]: the IC50 turned out to be 17 nM.
Compound `COc1cccc(C(=O)N2CCc3c(nn(C)c3-c3cncc(C(F)(F)F)n3)[C@@H]2C)c1Cl` [Example 8, (2-Chloro-3-methoxy-phenyl)-[(7S)-2,7-dimethyl-3-[6-(trifluoromethyl)pyrazin-2-yl]-5,7-dihydro-4H-pyrazolo[3,4-c]pyridin-6-yl]methanone] returned a concentration for half-maximal inhibition (IC50) of 183 nM.
Turning to `COc1cccc(C(=O)N2CCc3c(nn(C)c3-c3cnc(C(F)(F)F)nc3)[C@@H]2C)c1Cl` [Example 9, (2-Chloro-3-methoxy-phenyl)-[(7S)-2,7-dimethyl-3-[2-(trifluoromethyl)pyrimidin-5-yl]-5,7-dihydro-4H-pyrazolo[3,4-c]pyridin-6-yl]methanone], the IC50 was found to be 311 nM.

These data come from patent US20250059185A1 (Hoffmann-La Roche Inc., priority 2021, published 2025).
